# Where two headings read alike, the source gives them in different places.
# Columns and labels:
# [1] = cited from earlier work
# [2] = test system: MPTP-treated C57BL/6 mice; test: Rotarod test in MPTP-treated mice; type: in vivo, mouse; details: MPTP 25 mg/kg i.p. day 1–5; treatment day 1–13; vs MPTP vehicle control
# Method: (§1) MPTP was injected to male C57BL/6 mice for 5 consecutive days (Figure 4A) to destroy DA neurons, and then the mice were treated with Pegasus alone or Pegasus + Benserazide compared to L-dopa alone or L-Dopa + Benserazide.
# (§2) From day 1 to day 5, MPTP was administered to all the groups except Naive at a dose of 25 mg/kg, i.p., QD. Treatment with Pegasus alone (50 mg/kg, i.p., BID), a combination of Pegasus 50 mg/kg, BID + Benserazide 10 mg/kg, QD, or a combination of L-Dopa 10 mg/kg, QD + Benserazide 10 mg/kg, QD or standalone L-Dopa 10 mg/kg, QD, started on day 1 and continued until day 13. On day 13, after the first dose of Pegasus, 4 animals/time point from each group were sacrificed at 0.5, 1, 3, 6, and 12 h, and the blood and brains were collected.
# The mice were placed on an accelerating Rotarod (Columbus Instruments, Columbus, OH, USA) equipped with individual timers for each mouse. […] The mice were trained for 3 consecutive days before the final measurement.
# [3] = test system: MPTP-treated C57BL/6 mice; test: Grip strength test in MPTP-treated mice; type: in vivo, mouse; details: MPTP 25 mg/kg i.p. day 1–5; treatment day 1–13; vs MPTP vehicle control
# Method: as §1, §2
# The maximal muscle/grip strength of forelimbs was measured using a strength meter.
# [4] = In vivo metabolism, metabolite profiling in rat brain and plasma (LC-MS/MS); details: male, Sprague Dawley, intraperitoneal, 50 mg/kg; relative abundance brain vs plasma, rat
# Method: In vivo metabolism: We performed a metabolism study (Figure 2) in male Sprague Dawley rats (6–8 weeks old) after a single i.p. injection of 50 mg/kg Pegasus. Plasma and brain samples were serially collected and assessed for the presence of possible phase-I and phase-II metabolites. […] The relative abundance of Pegasus and its metabolites in the brain and plasma was determined at the ionization parameters of the parent.
# Metabolite profiling was performed in rat brain and plasma samples to detect phase-I and phase-II metabolites in male Sprague Dawley rats (6–8 weeks old, n = 6) injected (i.p.) with 50 mg/kg Pegasus. The formulation vehicle of Pegasus was 5% DMSO + 35% polyethylene glycol (PEG) 400 + 60% normal saline, and this formulation was used to measure the plasma and brain concentrations of Pegasus and all other metabolites. All samples obtained after Pegasus dosing in rats by the i.p. route of administration were used for metabolite profiling and compared to normal saline. Blood (n = 16 samples) was collected via retro-orbital plexus puncture 0.25, 1, 4, 6, 8, and 24 h pre-dose, and brain sampling was 1, 4, and 24 h post-dose (n = 6 per group). The brain samples were cleaned and perfused, then washed with PBS. The brains (approximately 1.5 g) were transferred to a 50 mL centrifuge tube and 36 mL of ice-cold PBS was added. The mixture was homogenized for about 1–2 min to obtain a uniform suspension. The precipitate was allowed to settle for 30 min at 4 °C, and 15 mL of the middle layer was collected. The plasma and brain samples were processed by the protein precipitation method. In total, 175 μL of acetonitrile was added to 25 μL of plasma samples. The samples were mixed, followed by centrifugation at 4000 rpm for 20 min. The supernatant from the samples was subjected to LC-MS/MS analysis.
# The samples were analyzed by liquid chromatography tandem mass spectrometry (HPLC: LC series, Shimadzu, Chiyoda-ku, Tokyo, Japan; mass spectrometer: API4000 Triple Quad mass spectrometer, Applied Biosystems, Carlsbad, CA, USA). The samples (n = 6) were processed using protein precipitation and 1 mM stock solution, prepared in DMSO, spiked into acetonitrile to a final concentration of 4 µM, and processed using liquid chromatography tandem mass spectrometry, employing a linear gradient method using MH+/MH−(Q1) and product ion (MS/MS) scans. The evaluation of the Pegasus metabolites included demethylation, de-hydroxylation, amide cleavage, oxidation, de-hydrogenation, glucuronidation, sulfation, glutathione conjugation, and several other possibilities. The relative abundance of Pegasus and its metabolites in the brain and plasma was determined at the ionization parameters of the parent.
# MPTP models of PD = test system: MPTP models of PD; parameters: method as in PMID 11724929; details: cited from earlier work
structure (smiles),measurement,setting,value
N[C@@H](Cc1ccc(O)c(O)c1)C(=O)O [L-Dopa],Half-life T1/2,[1]; in combination with DDCI,60 to 90 min
same,Levodopa brain entry,[1]; in combination with dopa-carboxylase enzyme inhibitor (DDCI),up to 10%
same,Half-life T1/2,[1]; levodopa administered alone,46.2 to 64.8 min
same,Share of oral dose that reaches the brain,[1]; levodopa administered alone,1%
same,Share reaching the brain,[1]; with DDCI and selective COMT inhibitors,up to 40%
same,Latency to fall (Rotarod),[2],significantly increased latency to fall
same,Forelimb grip strength,[3],significantly reversed back to normal levels
NC(=O)CCC(=O)NCCc1cc(O)c(O)c(SCC(N)C(=O)O)c1 (stereo not drawn) [M11],Kp,[4],1.31
CN(C)c1ccc(O)c2c1C[C@H]1C[C@H]3[C@H](N(C)C)C(O)=C(C(N)=O)C(=O)[C@@]3(O)C(O)=C1C2=O [Minocycline],Striatal cell loss,MPTP models of PD,prevents striatal cell loss

# From publication PMC12072186, “A Novel Small Molecule Enhances Stable Dopamine Delivery to the Brain in Models of Parkinson’s Disease” (International Journal of Molecular Sciences, 2025)
